# Data reported in ChEMBL document CHEMBL5291721, “A preclinical secondary pharmacology resource illuminates target-adverse drug reaction associations of marketed drugs” (Nat Commun, 2023).
# Legend:
# [1] = biological target: Adenosine receptor A2a (Homo sapiens, UniProt P29274)
# [2] = biological target: Vasopressin V1a receptor (Homo sapiens, UniProt P37288)
# [3] = biological target: T1, Glucocorticoid receptor (Homo sapiens, UniProt P04150)
# T1 sequence (P04150 whole entry): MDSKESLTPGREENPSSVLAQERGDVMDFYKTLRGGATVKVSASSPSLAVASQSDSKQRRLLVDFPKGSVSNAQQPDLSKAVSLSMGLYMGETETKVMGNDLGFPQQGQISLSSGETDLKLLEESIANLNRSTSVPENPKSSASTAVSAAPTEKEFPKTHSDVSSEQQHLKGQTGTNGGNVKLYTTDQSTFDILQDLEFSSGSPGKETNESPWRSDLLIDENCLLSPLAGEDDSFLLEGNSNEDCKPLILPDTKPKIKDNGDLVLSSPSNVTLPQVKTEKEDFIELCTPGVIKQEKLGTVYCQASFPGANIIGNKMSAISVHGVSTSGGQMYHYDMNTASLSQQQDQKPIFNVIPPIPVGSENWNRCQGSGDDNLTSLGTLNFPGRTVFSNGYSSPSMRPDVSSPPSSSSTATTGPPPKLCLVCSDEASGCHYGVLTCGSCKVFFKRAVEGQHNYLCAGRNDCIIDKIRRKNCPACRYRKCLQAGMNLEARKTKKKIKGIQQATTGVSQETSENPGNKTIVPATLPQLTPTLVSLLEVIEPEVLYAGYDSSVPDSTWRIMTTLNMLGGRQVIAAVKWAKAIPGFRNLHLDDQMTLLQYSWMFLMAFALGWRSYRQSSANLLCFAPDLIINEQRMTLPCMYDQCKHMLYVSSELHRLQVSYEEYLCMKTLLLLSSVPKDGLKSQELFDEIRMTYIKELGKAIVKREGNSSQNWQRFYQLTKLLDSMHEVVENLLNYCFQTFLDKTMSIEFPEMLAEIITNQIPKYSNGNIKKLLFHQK
# [4] = biological target: T2, Alpha-2A adrenergic receptor (Homo sapiens, UniProt P08913); format: functional, cell-based
# T2 sequence (P08913 whole entry): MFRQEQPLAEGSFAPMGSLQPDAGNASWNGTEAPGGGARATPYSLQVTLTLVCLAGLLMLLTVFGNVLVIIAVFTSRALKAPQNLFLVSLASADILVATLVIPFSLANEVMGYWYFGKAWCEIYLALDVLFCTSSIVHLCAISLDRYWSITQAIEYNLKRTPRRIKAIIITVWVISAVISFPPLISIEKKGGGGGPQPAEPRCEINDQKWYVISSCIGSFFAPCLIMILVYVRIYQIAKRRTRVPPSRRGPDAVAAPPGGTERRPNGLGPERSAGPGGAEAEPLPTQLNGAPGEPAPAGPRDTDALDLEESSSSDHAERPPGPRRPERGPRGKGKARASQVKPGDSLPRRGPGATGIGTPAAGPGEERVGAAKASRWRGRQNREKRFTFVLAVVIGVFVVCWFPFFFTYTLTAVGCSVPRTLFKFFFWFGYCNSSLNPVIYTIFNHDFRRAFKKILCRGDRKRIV
# [5] = biological target: D(1A) dopamine receptor (Homo sapiens, UniProt P21728); format: functional, cell-based
# Chain of D(1A) dopamine receptor (P21728 whole entry): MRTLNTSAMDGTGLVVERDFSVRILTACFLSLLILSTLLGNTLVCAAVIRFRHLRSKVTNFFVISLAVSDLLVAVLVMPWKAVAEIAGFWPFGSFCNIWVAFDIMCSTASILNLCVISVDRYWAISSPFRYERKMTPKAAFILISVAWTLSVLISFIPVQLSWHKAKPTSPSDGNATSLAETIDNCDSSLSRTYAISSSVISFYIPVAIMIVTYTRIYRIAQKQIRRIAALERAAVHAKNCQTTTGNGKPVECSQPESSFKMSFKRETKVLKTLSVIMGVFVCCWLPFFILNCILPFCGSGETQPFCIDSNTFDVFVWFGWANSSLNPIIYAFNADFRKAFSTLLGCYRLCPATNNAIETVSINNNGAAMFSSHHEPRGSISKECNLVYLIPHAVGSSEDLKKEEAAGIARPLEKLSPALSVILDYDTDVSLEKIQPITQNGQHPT
# [6] = biological target: Sodium-dependent dopamine transporter (Homo sapiens, UniProt Q01959)
# Chain of Sodium-dependent dopamine transporter (Q01959 whole entry): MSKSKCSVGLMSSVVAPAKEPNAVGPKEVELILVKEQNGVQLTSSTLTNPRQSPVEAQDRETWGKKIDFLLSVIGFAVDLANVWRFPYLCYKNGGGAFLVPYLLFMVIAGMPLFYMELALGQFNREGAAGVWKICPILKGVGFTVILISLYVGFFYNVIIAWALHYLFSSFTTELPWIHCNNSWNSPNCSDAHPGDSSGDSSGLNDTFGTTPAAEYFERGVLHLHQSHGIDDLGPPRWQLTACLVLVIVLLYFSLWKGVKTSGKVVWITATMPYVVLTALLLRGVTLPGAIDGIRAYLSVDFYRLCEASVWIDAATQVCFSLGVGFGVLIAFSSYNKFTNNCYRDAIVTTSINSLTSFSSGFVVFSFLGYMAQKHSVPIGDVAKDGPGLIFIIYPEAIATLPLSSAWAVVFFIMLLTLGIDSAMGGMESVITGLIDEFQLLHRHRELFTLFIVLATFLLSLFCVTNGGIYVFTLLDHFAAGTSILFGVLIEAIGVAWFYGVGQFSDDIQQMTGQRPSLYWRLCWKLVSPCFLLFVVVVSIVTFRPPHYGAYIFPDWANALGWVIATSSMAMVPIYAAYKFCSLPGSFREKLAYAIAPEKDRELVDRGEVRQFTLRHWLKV
# [7] = biological target: Sodium-dependent noradrenaline transporter (Homo sapiens, UniProt P23975)
# Chain of Sodium-dependent noradrenaline transporter (P23975 whole entry): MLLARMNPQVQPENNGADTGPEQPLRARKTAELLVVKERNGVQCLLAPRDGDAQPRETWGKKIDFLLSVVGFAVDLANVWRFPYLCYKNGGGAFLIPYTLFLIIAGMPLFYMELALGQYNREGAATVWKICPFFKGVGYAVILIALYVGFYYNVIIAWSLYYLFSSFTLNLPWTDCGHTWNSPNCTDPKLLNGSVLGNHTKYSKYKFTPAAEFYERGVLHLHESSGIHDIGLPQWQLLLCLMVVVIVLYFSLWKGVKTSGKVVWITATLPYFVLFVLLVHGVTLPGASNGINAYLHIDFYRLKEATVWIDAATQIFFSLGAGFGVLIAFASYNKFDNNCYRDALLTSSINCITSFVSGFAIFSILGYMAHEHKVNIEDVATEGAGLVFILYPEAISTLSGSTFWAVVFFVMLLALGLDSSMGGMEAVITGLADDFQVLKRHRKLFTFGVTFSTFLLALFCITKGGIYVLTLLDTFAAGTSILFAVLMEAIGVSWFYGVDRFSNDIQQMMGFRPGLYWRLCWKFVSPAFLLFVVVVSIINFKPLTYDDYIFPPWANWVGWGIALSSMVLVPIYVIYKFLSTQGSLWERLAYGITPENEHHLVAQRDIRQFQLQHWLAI
# [8] = biological target: T3, Muscarinic acetylcholine receptor M1 (Homo sapiens, UniProt P11229); format: functional
# T3 sequence (P11229 whole entry): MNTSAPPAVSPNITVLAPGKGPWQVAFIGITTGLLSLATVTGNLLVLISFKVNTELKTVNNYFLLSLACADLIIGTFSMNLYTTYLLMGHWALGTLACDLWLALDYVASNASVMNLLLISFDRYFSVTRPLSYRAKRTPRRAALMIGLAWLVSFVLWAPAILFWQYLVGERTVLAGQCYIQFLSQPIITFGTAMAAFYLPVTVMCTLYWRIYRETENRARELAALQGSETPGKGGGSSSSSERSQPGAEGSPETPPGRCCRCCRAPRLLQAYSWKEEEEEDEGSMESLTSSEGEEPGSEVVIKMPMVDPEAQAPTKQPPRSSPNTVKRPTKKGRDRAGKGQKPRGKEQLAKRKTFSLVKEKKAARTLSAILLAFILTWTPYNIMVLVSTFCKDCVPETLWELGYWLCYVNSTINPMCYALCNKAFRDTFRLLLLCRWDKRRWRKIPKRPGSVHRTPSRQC
# [9] = biological target: Histamine H1 receptor (Homo sapiens, UniProt P35367)
# Chain of Histamine H1 receptor (P35367 whole entry): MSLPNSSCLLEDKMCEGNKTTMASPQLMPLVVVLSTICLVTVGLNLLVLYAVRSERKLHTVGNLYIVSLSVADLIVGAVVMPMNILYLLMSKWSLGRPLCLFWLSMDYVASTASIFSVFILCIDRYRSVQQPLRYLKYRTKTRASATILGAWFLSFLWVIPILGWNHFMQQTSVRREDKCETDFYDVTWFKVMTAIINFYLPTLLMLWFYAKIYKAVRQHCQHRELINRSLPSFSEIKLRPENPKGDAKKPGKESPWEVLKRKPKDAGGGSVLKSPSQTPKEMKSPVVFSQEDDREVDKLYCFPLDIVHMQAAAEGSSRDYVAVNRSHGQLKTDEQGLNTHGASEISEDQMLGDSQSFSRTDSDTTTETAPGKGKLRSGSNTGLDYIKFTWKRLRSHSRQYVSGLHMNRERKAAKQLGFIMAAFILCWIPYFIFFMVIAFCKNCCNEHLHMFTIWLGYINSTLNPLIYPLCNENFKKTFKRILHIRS
# [10] = biological target: T4, 5-hydroxytryptamine receptor 3A (Homo sapiens, UniProt P46098); format: functional
# T4 sequence (P46098 whole entry): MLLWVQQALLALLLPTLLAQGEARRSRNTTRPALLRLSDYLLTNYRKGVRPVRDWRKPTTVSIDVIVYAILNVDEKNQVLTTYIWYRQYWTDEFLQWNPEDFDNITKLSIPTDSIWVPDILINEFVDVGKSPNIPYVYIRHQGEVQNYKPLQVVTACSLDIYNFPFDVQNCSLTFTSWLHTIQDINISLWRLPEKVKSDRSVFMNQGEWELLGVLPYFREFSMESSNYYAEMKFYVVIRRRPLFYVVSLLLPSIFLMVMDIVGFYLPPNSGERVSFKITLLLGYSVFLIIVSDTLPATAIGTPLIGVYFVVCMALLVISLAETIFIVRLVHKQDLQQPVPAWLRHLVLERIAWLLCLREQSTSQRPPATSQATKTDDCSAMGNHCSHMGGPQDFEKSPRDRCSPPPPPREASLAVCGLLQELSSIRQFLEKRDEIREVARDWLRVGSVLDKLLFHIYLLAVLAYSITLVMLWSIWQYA
# Further: assay procedure not described here.
# Chain of Adenosine receptor A2a (P29274 whole entry): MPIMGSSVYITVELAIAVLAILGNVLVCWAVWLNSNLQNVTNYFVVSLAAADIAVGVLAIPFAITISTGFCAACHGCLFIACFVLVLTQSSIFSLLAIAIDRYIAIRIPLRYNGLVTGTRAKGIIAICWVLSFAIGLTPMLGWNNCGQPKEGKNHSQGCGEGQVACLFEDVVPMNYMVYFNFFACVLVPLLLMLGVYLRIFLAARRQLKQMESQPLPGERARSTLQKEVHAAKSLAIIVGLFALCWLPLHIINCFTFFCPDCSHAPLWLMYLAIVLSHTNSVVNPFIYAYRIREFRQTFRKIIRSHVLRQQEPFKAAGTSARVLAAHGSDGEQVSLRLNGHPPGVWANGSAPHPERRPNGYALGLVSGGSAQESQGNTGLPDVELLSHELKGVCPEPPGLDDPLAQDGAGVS
# Chain of Vasopressin V1a receptor (P37288 whole entry): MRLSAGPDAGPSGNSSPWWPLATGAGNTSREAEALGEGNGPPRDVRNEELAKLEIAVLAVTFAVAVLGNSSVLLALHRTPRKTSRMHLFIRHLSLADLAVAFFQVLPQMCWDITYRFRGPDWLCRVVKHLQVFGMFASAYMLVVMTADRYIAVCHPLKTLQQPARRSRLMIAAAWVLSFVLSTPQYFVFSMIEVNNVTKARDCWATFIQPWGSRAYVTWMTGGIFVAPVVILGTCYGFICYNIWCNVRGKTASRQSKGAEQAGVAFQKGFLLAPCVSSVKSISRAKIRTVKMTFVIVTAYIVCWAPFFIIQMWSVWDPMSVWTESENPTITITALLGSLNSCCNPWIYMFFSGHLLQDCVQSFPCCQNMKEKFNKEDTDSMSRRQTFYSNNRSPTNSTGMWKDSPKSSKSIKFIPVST
AC50 [1] [µM],AC50 [2] [µM],AC50 [3] [µM],AC50 [4] [µM],AC50 [5] [µM],AC50 [6] [µM],AC50 [7] [µM],AC50 [8] [µM],AC50 [10] [µM],SMILES,AC50 [9] [µM]
> 10,> 10,> 10,> 10,> 10,> 10,> 10,–,–,CN1CCC(=C2c3ccccc3CC(=O)c3sccc32)CC1 [KETOTIFEN],–
> 30,> 30,> 10,> 10,> 10,> 10,> 10,–,> 30,CC(C)CN(C[C@@H](O)[C@H](Cc1ccccc1)NC(=O)O[C@H]1CCOC1)S(=O)(=O)c1ccc(N)cc1,–
24,25,> 30,–,> 30,> 30,13,19,> 30,CC(=O)Oc1cccc2c1C(=O)c1c(OC(C)=O)cc(C(=O)O)cc1C2=O [DIACEREIN],> 30
> 30,> 30,> 30,> 10,> 10,> 30,> 30,–,> 30,CC1=C(CC(=O)O)c2cc(F)ccc2/C1=C\c1ccc([S+](C)[O-])cc1 (stereo unspecified),–
> 10,–,> 30,> 10,> 10,> 10,> 10,–,> 30,CN(Cc1ccc(C(C)(C)C)cc1)Cc1cccc2ccccc12 [BUTENAFINE],–
> 30,> 30,> 30,> 30,> 30,> 30,–,> 30,> 30,CN1CCCN=C1/C=C/c1cccc(O)c1 [OXANTEL],–

# The remaining lines, values behind:
SMILES,AC50 [1] [µM],AC50 [2] [µM],AC50 [3] [µM],AC50 [4] [µM],AC50 [5] [µM],AC50 [6] [µM],AC50 [7] [µM],AC50 [8] [µM],AC50 [10] [µM],AC50 [9] [µM]
CCN(CC)CC(=O)Nc1c(C)cccc1C [LIDOCAINE],> 30,> 10,> 30,–,–,–,–,–,–,–
O=C(O[C@H]1C[N+]2(CCCOc3ccccc3)CCC1CC2)C(O)(c1cccs1)c1cccs1 [ACLIDINIUM BROMIDE],> 30,> 10,> 30,–,–,> 10,> 10,0.018,> 30,4.5
CNCCc1ccccn1 [BETAHISTINE],> 30,–,> 30,> 30,> 30,> 30,> 30,–,> 30,–
CC(=O)[C@@]1(O)CC[C@H]2[C@@H]3C[C@H](C)C4=CC(=O)C=C[C@]4(C)[C@@]3(F)[C@@H](O)C[C@@]21C [FLUOROMETHOLONE],> 10,–,0.004,> 10,> 10,> 10,> 10,–,> 30,–
Nc1cc(N2CCCCC2)nc(N)[n+]1[O-] [MINOXIDIL],> 30,–,> 30,> 10,> 30,> 30,> 30,–,> 30,–
CCCCOC(=O)c1ccc(N)cc1 [BUTAMBEN],> 30,–,> 30,> 30,> 30,> 30,> 30,–,> 30,–
